Measurements published in patent US20260224716A1, “PTH ANALOGS FOR THE TREATMENT OF HYPOPARATHYROIDISM” (priority 2020, published 2026).

Assays:
[1] = Cleavage half-life / conversion of PTH prodrugs in PBS pH 7.4, 37° C. by LC-MS; assay type: physicochemical; conditions: for Percentage of prodrug: prodrug in PBS, LC-MS peak areas
Outline: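 Prodrugs incubated in PBS pH 7.4 at 37 °C, aliquots sampled over time for LC-MS (10–80% acetonitrile/0.1% TFA gradient). Prodrug and drug quantified by relative peak areas; dissociation rate constant from log prodrug concentration versus time.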

PTHR1 = biological target: T1, PTHR1 (Homo sapiens, UniProt Q03431); assay: cAMP Hunter Teriparatide Bioassay (CHO-K1 PTHR1 cells); assay type: cell-based
T1 construct: host or cells: CHO-K1
T1 sequence (Q03431 27-593): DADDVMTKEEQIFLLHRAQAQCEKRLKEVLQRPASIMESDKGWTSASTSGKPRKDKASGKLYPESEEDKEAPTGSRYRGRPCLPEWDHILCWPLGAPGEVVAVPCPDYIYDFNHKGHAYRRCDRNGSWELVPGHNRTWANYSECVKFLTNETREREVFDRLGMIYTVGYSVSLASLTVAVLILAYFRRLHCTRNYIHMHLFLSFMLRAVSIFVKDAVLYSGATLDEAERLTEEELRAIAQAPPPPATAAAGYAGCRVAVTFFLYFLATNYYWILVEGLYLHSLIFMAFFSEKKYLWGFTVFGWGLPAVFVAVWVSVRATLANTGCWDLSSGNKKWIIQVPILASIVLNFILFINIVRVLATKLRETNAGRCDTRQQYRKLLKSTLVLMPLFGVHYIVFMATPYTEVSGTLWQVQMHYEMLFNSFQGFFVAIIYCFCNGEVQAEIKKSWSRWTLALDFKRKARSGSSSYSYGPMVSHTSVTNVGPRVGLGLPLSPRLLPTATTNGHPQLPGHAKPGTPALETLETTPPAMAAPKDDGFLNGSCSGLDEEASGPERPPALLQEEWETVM
Protocol: The assessment of the bioactivity of a prodrug relative to its drug form was conducted in a proprietary commercial assay as contracted with Eurofins-Discover Rx Corporation win a cAMP Hunter® Teriparatide Bioassay (95-0118Y2). An 11-point dose curve in agonist mode was conducted for each individual peptide or incubation condition. Every sample was run at each dose in triplicate.
An 11-point dose curve in agonist mode was conducted for each individual peptide or incubation condition. Every sample was run at each dose in triplicate.
An 11-point dose curve in agonist mode was conducted for each individual peptide at each concentration. Every sample was run at each dose in triplicate.

[2] = Plasma drug levels in rats, repeat daily dosing 7 days, LCMS (Example 13); assay type: in vivo, Sprague-Dawley rats
Protocol: Female Sprague-Dawley rats were single or double-housed and randomly assigned to four groups (n=5-6 per group) as described in Table 20, and then weighed.
After the treatment ceased, the animals were monitored on days 9 and 11 (washout period).
Body weight and food intake were measured on days 0, 1, 3, 5 and 7. Ca was measured on days 0, 1, 2, 3, 4, 7, 9 and 11. Pi was determined on the same samples, except for days 9 and 11.

serum calcium [3] = assay: Serum calcium in rats, repeat daily dosing 28 days (Example 14); assay type: in vivo, Sprague-Dawley rats
Protocol: Changes in body weight and food intake were also measured.
Body weight and food intake were measured on Day 0 (immediately prior to peptide administration), 1, 3, 7, 10, 14, 17, 21, 24, 28, 31, and 35. Serum Ca was measured at the start of the experiment and on Days 7, 14, 21, 28, 29, 30, 31, 32 and 34. Blood samples were collected via tail laceration for determination of total Ca in serum using commercially available colorimetric assays.

serum calcium [4] = assay: Serum calcium in parathyroidectomized rats, four daily doses (Example 15); assay type: in vivo, Sprague-Dawley rats; conditions: for starting serum calcium concentration: before first dose
Description: (§1) Rats were randomly distributed among 5 groups and injected subcutaneously for four consecutive days with either vehicle (sterile 0.9% NaCl solution; n=6), or SEQ ID NO; 87 (10, 25, 40 nmol/kg; n=8). Two separate vehicle treated groups of rats were studied. The first represented control rats surgically managed like the remaining rats, but their parathyroid gland was not removed (sham control). The second vehicle control group represented rats that were surgically managed in the same manner as the SEQ ID NO: 87 treated rats. Following surgery and one week prior to testing all the rats were placed on a defined diet at a specific calcium concentration.
A 96-well plate spectrophotometer (SpectraMax M5, Molecular Devices) was employed for detection. […] Absorbance (Ab) was measured at 650 nm wavelength. Manufacturer provided linearity up to 15 mg/dL. The serum calcium was measured immediately prior to injection (time 0 hour), followed by 24, 48, 72, and 96 hours.

serum phosphate = assay: Serum phosphate in parathyroidectomized rats, ten daily doses (Example 16); assay type: in vivo, Sprague-Dawley rats; conditions: for starting serum phosphate concentration: PTx rats, before first dose
Description: as §1, with “ten” for “four”, “vehicle” for “vehicle (sterile 0.9% NaCl solution; n=6),”
Determination of phosphate levels was conducted with sampling at near-identical times to the serum calcium, differing only in the last days of the washout period. […] The starting phosphate level was 7.003 mg/dl, as compared to 11.317 mg/dl in the vehicle control group of the PTx rats. […] The difference between the two control groups was maintained through the course of the experiment. […] Efficacy was fully maintained through observation at Day 10, one day after the last administered dose. […] Twenty-five days after study initiation, all PTx-rats aligned as a group with increased phosphate, as compared to sham control rats.

[5] = Pharmacokinetics of SEQ ID 87 in monkeys, single subcutaneous dose (Example 17); assay type: in vivo, cynomolgus monkeys; conditions: FIGS. 26A, 26B
Protocol: A total of three monkeys were used at each test dose. The monkeys ranged in age from 2-4 years old at beginning of the study and having a weight of at least 2.5 kg. The dose volume was 0.3 mL/kg. Individual dose volumes were calculated based on the animals' most recently recorded body weight.
Animals were not fasted prior to collection. Blood was be collected via the femoral vein (or another appropriate site). Blood samples were maintained at 5±3° C. (wet ice or equivalent) and centrifuged at 5±3° C. within 1 hour of the collection of each blood sample. The resultant plasma was transferred to a tube and then stored under conditions set to maintain −75±15° C. until analysis.
Pharmacokinetic mean concentration-time data was analyzed using non-compartmental methods (Phoenix® WinNonlin® Version 7.0 or higher) based on the route of administration. The following parameters were calculated whenever possible and as data allows: Cmax, Tmax, and AUC. Descriptive statistics were generated using Phoenix WinNonlin.

CC[C@H](C)[C@H](NC(=O)[C@H](CCC(=O)O)NC(=O)[C@H](CO)NC(=O)[C@@H](NC(=O)[C@H](CO)NC(=O)CN(C)C(=O)[C@H](N)CCCCNC(=O)CC[C@H](NC(=O)COCCOCCNC(=O)COCCOCCNC(=O)CC[C@H](NC(=O)CCCCCCCCCCCCCCCCC(=O)O)C(=O)O)C(=O)O)C(C)C)C(=O)N[C@@H](CCC(N)=O)C(=O)N[C@@H](CC(C)C)C(=O)N[C@@H](CCSC)C(=O)N[C@@H](Cc1c[nH]cn1)C(=O)N[C@@H](CC(N)=O)C(=O)N[C@@H](CC(C)C)C(=O)NCC(=O)N[C@@H](CCCCN)C(=O)N[C@@H](Cc1c[nH]cn1)C(=O)N[C@@H](CC(C)C)C(=O)N[C@@H](CC(N)=O)C(=O)N[C@@H](CO)C(=O)N[C@@H](CCSC)C(=O)N[C@@H](CCC(=O)O)C(=O)N[C@@H](CCCNC(=N)N)C(=O)N[C@H](C(=O)N[C@@H](CCC(=O)O)C(=O)N[C@@H](Cc1c[nH]c2ccccc12)C(=O)N[C@@H](CC(C)C)C(=O)N[C@@H](CCCNC(=N)N)C(=O)N[C@@H](CCCCN)C(=O)N[C@@H](CCCCN)C(=O)N[C@@H](CC(C)C)C(=O)N[C@@H](CCC(N)=O)C(=O)N[C@@H](CC(=O)O)C(=O)N[C@H](C(=O)N[C@@H](Cc1c[nH]cn1)C(=O)N[C@@H](CCCCNC(=O)CC[C@H](NC(=O)COCCOCCNC(=O)COCCOCCNC(=O)CC[C@H](NC(=O)CCCCCCCCCCCCCCCCC(=O)O)C(=O)O)C(=O)O)C(=O)O)C(C)C)C(C)C [SEQ ID NO: 87]
half-life ([1]; PBS buffer, pH 7.4, PBS, LCMS over 192 hours, FIG. 10): 112 h
Percentage of prodrug ([1]; 0 h): 100%
Percentage of prodrug ([1]; 48 h): 74%
Percentage of prodrug ([1]; 72 h): 62%
Percentage of prodrug ([1]; 120 h): 46%
Percentage of prodrug ([1]; 192 h): 31%
Hillslope (PTHR1; FIG. 11, prodrug incubated in PBS 1 day): 1.421
Hillslope (PTHR1; FIG. 11, prodrug incubated in PBS 2 day): 2.102
Hillslope (PTHR1; FIG. 11, prodrug incubated in PBS 3 day): 1.825
Hillslope (PTHR1; FIG. 11, prodrug incubated in PBS 5 day): 2.102
Hillslope (PTHR1; FIG. 11, prodrug incubated in PBS 8 day): 2.172
PTH agonism (PTHR1; conclusions from Table 14, FIGS. 8A-8C): full PTH agonist of high nM potency
daily administrations to reach steady state plasma levels ([2]; daily SC dosing): four
difference in total concentration of prodrug to drug ([2]; seven daily SC injections, FIGS. 19A, 19B): 4 fold
absolute increase in serum Ca over the course of the study (serum calcium [3]; 4 nmol/kg daily SC): 1.356 mg/dL
percentage increase in serum Ca (serum calcium [3]; 4 nmol/kg daily SC): 14.7%
absolute increase in serum Ca over the course of the study (serum calcium [3]; 8 nmol/kg daily SC): 1.452 mg/dL
percentage increase in serum Ca (serum calcium [3]; 8 nmol/kg daily SC): 16.7%
absolute increase in serum Ca over the course of the study (serum calcium [3]; 12 nmol/kg daily SC): 2.072 mg/dL
percentage increase in serum Ca (serum calcium [3]; 12 nmol/kg daily SC): 23%
general health (serum calcium [3]; 4, 8, 12 nmol/kg daily SC): All animals appeared healthy
serum calcium versus sham control (serum calcium [4]; PTx rats, 25 nmol/kg daily SC, 72 hours): insignificantly different from the sham control rats
serum calcium versus sham control (serum calcium [4]; PTx rats, 40 nmol/kg daily SC, after 48 hours): slightly exceeding that of the sham control rats
serum calcium excess over the sham control (serum calcium [4]; PTx rats, 40 nmol/kg, […] (72 hours after last dose)): more than 0.2 nmol/ml
starting serum calcium concentration (serum calcium [4]; PTx rats, treatment group 10 nmol/kg): 1.185 nmol/µL
starting serum calcium concentration (serum calcium [4]; PTx rats, treatment group 25 nmol/kg): 1.354 nmol/µL
starting serum calcium concentration (serum calcium [4]; PTx rats, treatment group 40 nmol/kg): 1.251 nmol/µL
starting serum calcium, higher level than vehicle treated PTx-rats (serum calcium [4]; treatment group 10 nmol/kg): 9.2%
starting serum calcium, higher level than vehicle treated PTx-rats (serum calcium [4]; treatment group 25 nmol/kg): 24.8%
starting serum calcium, higher level than vehicle treated PTx-rats (serum calcium [4]; treatment group 40 nmol/kg): 15.3%
serum phosphate levels versus sham control (serum phosphate; PTx rats, 10, 25, 40 nmol/kg daily SC, after seven days): comparable to sham control rats
starting serum phosphate concentration (serum phosphate; treatment group 10 nmol/kg): 11.412 mg/dL
starting serum phosphate concentration (serum phosphate; treatment group 25 nmol/kg): 10.673 mg/dL
starting serum phosphate concentration (serum phosphate; treatment group 40 nmol/kg): 8.152 mg/dL
starting serum phosphate, decreased level versus PTx vehicle (serum phosphate; high-dose group 40 nmol/kg): 28%
starting serum phosphate, increase versus PTx vehicle (serum phosphate; low-dose group 10 nmol/kg): 1.0%
starting serum phosphate, decreased level versus PTx vehicle (serum phosphate; mid-dose group 25 nmol/kg): 5.7%
difference of prodrug to drug serum concentration [5]: ~4 fold
